# Assay results as given in ChEMBL document CHEMBL4339208, “6-Bromoindolglyoxylamido derivatives as antimicrobial agents and antibiotic enhancers” (Bioorg Med Chem, 2019).
# Active and inactive are the calls of the source. The calls are words filed in the database; no cut-off is given here.
# Tests used:
# Escherichia coli = test: Antibacterial activity against Escherichia coli ATCC 25922 measured after 18 hrs by broth dilution method; format: functional
# Erythrocyte = test: Hemolytic activity against human RBC incubated for 10 mins under shaking condition measured after 1 hr; format: ADME, cell-based
# Cryptococcus neoformans [1] = test: Antifungal activity against Cryptococcus neoformans ATCC 208821 measured after 36 hrs by resazurin dye based assay; format: functional; conditions: ATCC 208821, 36 h
# Candida albicans [2] = test: Antifungal activity against Candida albicans ATCC 90028 measured after 36 hrs; format: functional; conditions: ATCC 90028, 36 h
# Pseudomonas aeruginosa [3] = test: Antibacterial activity against Pseudomonas aeruginosa ATCC 27853 measured after 18 hrs by broth dilution method; format: functional
# Staphylococcus aureus = test: Antibacterial activity against Staphylococcus aureus ATCC 25923 measured after 18 hrs by broth dilution method; format: functional; conditions: ATCC 25923, 18 h
# Klebsiella pneumoniae [4] = test: Antibacterial activity against Klebsiella pneumoniae ATCC 700603 measured after 18 hrs by resazurin dye based assay; format: functional
# Pseudomonas aeruginosa [5] = test: Potentiation of doxycycline-induced antibacterial activity against Pseudomonas aeruginosa ATCC 27853 assessed as concentration required to restore 2 ug/ml doxycycline activity measured after 18 hrs; format: functional
# L6 = test: Cytotoxicity against rat L6 cells measured after 72 hrs by alamar blue assay; format: cell-based; conditions: L6, 72 h
# [6] = Cytotoxicity against HEK293 cells measured after 20 hrs by resazurin dye based fluorescence assay; format: cell-based, Homo sapiens; conditions: human, HEK293 cells
# Klebsiella pneumoniae [7] = test: Antibacterial activity against Klebsiella pneumoniae ATCC 700603 at 32 ug/ml measured after 18 hrs by resazurin dye based assay; format: functional, organism-based
# Acinetobacter baumannii [8] = test: Antibacterial activity against Acinetobacter baumannii ATCC 19606 measured after 18 hrs by resazurin dye based assay; format: functional
# Acinetobacter baumannii [9] = test: Antibacterial activity against Acinetobacter baumannii ATCC 19606 at 32 ug/ml measured after 18 hrs by resazurin dye based assay; format: functional, organism-based; conditions: ATCC 19606 = CIP 70.34 = JCM 6841
# Candida albicans [10] = test: Antifungal activity against Candida albicans ATCC 90028 at 32 ug/ml measured after 36 hrs; format: functional, organism-based
# Cryptococcus neoformans [11] = test: Antifungal activity against Cryptococcus neoformans ATCC 208821 at 32 ug/ml measured after 36 hrs by resazurin dye based assay; format: functional, organism-based
# [12] = tested on: Staphylococcus intermedius; test: Antibacterial activity against Staphylococcus intermedius 1051997 measured after 18 hrs by broth dilution method; format: functional; conditions: Staphylococcus intermedius, 1051997, 18 h
# [13] = Klebsiella pneumoniae, 700603, 18 h
# [14] = ATCC 19606 = CIP 70.34 = JCM 6841, 18 h
Molecule,"MIC (Escherichia coli; ATCC 25922, 18 h)",HC10 (Erythrocyte),MIC (Cryptococcus neoformans [1]),MIC (Candida albicans [2]),"MIC (Pseudomonas aeruginosa [3]; ATCC 27853, 18 h)",MIC (Staphylococcus aureus),MIC (Klebsiella pneumoniae [4]; [13]),Activity (Pseudomonas aeruginosa [5]),IC50 (L6),CC50 at 20 h [6],Activity (Klebsiella pneumoniae [7]),MIC (Acinetobacter baumannii [8]; [14]),Activity (Acinetobacter baumannii [9]),Activity (Candida albicans [10]),Activity (Cryptococcus neoformans [11]),MIC [12],MIC (Escherichia coli),MIC (Pseudomonas aeruginosa [3]),MIC (Klebsiella pneumoniae [4]),MIC (Acinetobacter baumannii [8]; ATCC 19606 = CIP 70.34 = JCM 6841)
O=C(NCCCNCCCCCCCCCCCCNCCCNC(=O)C(=O)c1c[nH]c2cc(Br)ccc12)C(=O)c1c[nH]c2cc(Br)ccc12.O=C(O)C(F)(F)F.O=C(O)C(F)(F)F,> 200 µM,2.18 µM,7.67 µM,7.67 µM,> 200 µM,> 200 µM,> 32 µM,>200 µM,1.6 µM,9.72 µM,inactive,> 32 µM,inactive,–,–,–,–,–,–,–
O=C(NCCCNCCNC(=O)C(=O)c1c[nH]c2cc(Br)ccc12)C(=O)c1c[nH]c2cc(Br)ccc12,> 200 µM,–,> 52 µM,> 52 µM,> 200 µM,12.5 µM,> 52 µM,>200 µM,89.3 µM,> 52 µM,inactive,> 52 µM,inactive,inactive,inactive,50 µM,–,–,–,–
COLISTIN,–,–,–,–,–,–,–,–,–,–,–,–,–,–,–,–,1 µM,2 µM,0.25 µg/mL,0.25 µg/mL
O=C(NCCCNCCCCCCCCCCNCCCNC(=O)C(=O)c1c[nH]c2cc(Br)ccc12)C(=O)c1c[nH]c2cc(Br)ccc12.O=C(O)C(F)(F)F.O=C(O)C(F)(F)F,24.6 µM,7.88 µM,< 0.25 µM,1.97 µM,24.6 µM,12.3 µM,31.5 µM,6.16 µM,12.4 µM,6.03 µM,–,31.5 µM,–,–,–,–,–,–,–,–
CC[C@H](C)[C@H](NC(=O)CN)C(=O)NCC(=O)N[C@@H](C)C(=O)N[C@H](C(=O)N[C@@H](CC(C)C)C(=O)N[C@@H](CCCCN)C(=O)N[C@H](C(=O)N[C@@H](CC(C)C)C(=O)N[C@H](C(=O)N[C@H](C(=O)NCC(=O)N[C@@H](CC(C)C)C(=O)N1CCC[C@H]1C(=O)N[C@@H](C)C(=O)N[C@@H](CC(C)C)C(=O)N[C@H](C(=O)N[C@@H](CO)C(=O)N[C@@H](Cc1c[nH]c2ccccc12)C(=O)N[C@H](C(=O)N[C@@H](CCCCN)C(=O)N[C@@H](CCCNC(=N)N)C(=O)N[C@@H](CCCCN)C(=O)N[C@@H](CCCNC(=N)N)C(=O)N[C@@H](CCC(N)=O)C(=O)N[C@@H](CCC(N)=O)C(N)=O)[C@@H](C)CC)[C@@H](C)CC)[C@@H](C)O)[C@@H](C)O)C(C)C)C(C)C [MELITTIN],–,2.7 µg/mL,–,–,–,–,–,–,–,–,–,–,–,–,–,–,–,–,–,–
CN(C)CCNC(=O)C(=O)c1c[nH]c2cc(Br)ccc12,> 200 µM,–,> 95 µM,> 95 µM,> 200 µM,> 200 µM,> 95 µM,>200 µM,99.5 µM,> 95 µM,inactive,> 95 µM,inactive,inactive,inactive,12.5 µM,–,–,–,–
OC(Cn1cncn1)(Cn1cncn1)c1ccc(F)cc1F [FLUCONAZOLE],–,–,8 µg/mL,0.125 µg/mL,–,–,–,–,–,–,–,–,–,–,–,–,–,–,–,–
O=C(NCCCNCCCCCCNCCCNC(=O)C(=O)c1c[nH]c2cc(Br)ccc12)C(=O)c1c[nH]c2cc(Br)ccc12.O=C(O)C(F)(F)F.O=C(O)C(F)(F)F,52.2 µM,18 µM,33.4 µM,8.35 µM,> 200 µM,6.5 µM,> 33.4 µM,6.52 µM,5.7 µM,17.1 µM,inactive,> 33.4 µM,inactive,–,–,–,–,–,–,–
CN[C@@H]1[C@H](O[C@H]2[C@H](O[C@H]3[C@H](O)[C@@H](O)[C@H](N=C(N)N)[C@@H](O)[C@@H]3N=C(N)N)O[C@@H](C)[C@]2(O)C=O)O[C@@H](CO)[C@H](O)[C@H]1O [STREPTOMYCIN],21.5 µM,–,–,–,21.5 µM,21.5 µM,–,–,–,–,–,–,–,–,–,10.7 µM,–,–,–,–
